Experimental data published in ChEMBL document CHEMBL3045988, “Computational and thermodynamic analyses of the phospholipase A2 inhibition by erucic acid and linoleic acid” (Med Chem Res, 2013).

Molecular target: Phospholipase A2 (Sus scrofa) (UniProt P00592+P04416)
Assay: Binding affinity to Sus scrofa (pig) PLA2 isolated from pancreas by isothermal titration calorimetric analysis
Assay type: protein assay

Chain of Phospholipase A2 (Sus scrofa) (P00592 whole entry, looked up): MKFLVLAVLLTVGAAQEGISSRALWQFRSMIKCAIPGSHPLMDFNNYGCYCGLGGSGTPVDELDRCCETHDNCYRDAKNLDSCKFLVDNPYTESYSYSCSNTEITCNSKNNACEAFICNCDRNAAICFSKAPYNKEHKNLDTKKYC
Chain of Phospholipase A2 (Sus scrofa) (P04416 whole entry, looked up): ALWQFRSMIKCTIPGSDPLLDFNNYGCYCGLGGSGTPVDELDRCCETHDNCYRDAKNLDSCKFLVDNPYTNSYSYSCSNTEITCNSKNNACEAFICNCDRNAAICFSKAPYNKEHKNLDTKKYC

| SMILES | K |
| --- | --- |
| CCCCCCCC/C=C\CCCCCCCCCCCC(=O)O | 23.3 ×10⁴ /M |
| CCCCC/C=C\C/C=C\CCCCCCCC(=O)O | 1.15 ×10⁴ /M |
